Data taken from patent publication US5780505A, “Substituted N-arylmethylamino derivatives of cyclobutene-3, 4-diones” (American Home Products Corporation, priority 1997, dated 1998).
Where two headings read alike, the source gives them in different places.

Tests used:
[1] = system: Isolated Rat Bladder Strips; test: Inhibition of contractions in isolated rat bladder strips (KCl-enhanced contractile activity; smooth muscle relaxation); assay type: cell-based, Sprague-Dawley rats; details: for inhibition at 30 µM: read-out: Percent inhibition at 30 μM (I)
In short: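 Bladder strips from Sprague-Dawley rats were held in 37 °C PSS (pH 7.4, 95% O2/5% CO2) at 1.5 g resting tension with isometric force recording. Contractions were enhanced by an extra 15 mM KCl, then cumulative compound concentrations were added, each measured over the last minute of 30 min. IC50 is 50% inhibition of pre-drug contractile activity from the concentration-response curve.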

[2] = system: hypertrophied bladder (detrussor) smooth muscle; test: Inhibition of spontaneous contractions in vivo (conscious female rats with hypertrophied bladders, cystometry); design: species or system Female Sprague-Dawley rats; details: hypertrophied rat bladder model
Source text: In addition, we tested the ability of compounds to inhibit the hyperactivity of hypertrophied bladder (detrussor) smooth muscle in conscious female rats with hypertrophied bladders and thereby alleviate urinary incontinence in rats according to the following protocol described by Malmgren (A. Malmgren, K. E. Andersson, C. Sjogren, P. O. Andersson, Effects of pinacidil and Cromakalim (BRL 34915) on Bladder Function in Rats with Detrusor Instability, J. Urol. 142: 1134, 1989.):
Female Sprague-Dawley rats, ranging in weight from 190-210 g are used. Up to 25 animals are prepared each time. After developemnt of bladder hypertrophy 4-8 animals are used per test.
Compounds are dissolved in PEG-200 and administered by gastric gavage or intraveneously in a volume of 5 ml/kg. For primary screening all drugs are administered at the arbitrary dose of 10 mg/kg p.o. to groups of 4 rats.
The animals are anesthetized with halothane. Through a midline incision the bladder and urethra are exposed and a ligature of 4-0 silk is tied around the proximal urethra in the presence of a stainless steel rod (1 mm diameter) to produce a partial occlusion. The rod is then removed. The abdominal region is closed using surgical staples and each rat receives 150,000 units of bicillin C-R. The animals ar allowed six weeks to develop sufficient bladder hypertrophy. After six weeks, the ligature is removed under halothane anesthesia and a catheter (PE 60) with a cuff is placed in the dome of the bladder and secured with a purse string suture. The catheter is tunneled under the skin and exteriorized through an opening in the back of the neck. The abdominal incision is sutured and the free end of the catheter sealed. In order to prevent infections the rats receive an injection of bicillin C-R (150000 units/rat). Two days later the animals are used in cystometrical evaluations, The animals are placed in the metabolic cages and the catheter is attached (using a "T" connector) to a Statham pressure transducer (Model P23Db) and to a Harvard infusion pump. A plastic beaker attached to a force displacement transducer (Grass FTO3) is placed under the rat's cage to collect and record urine volume. Animals are allowed 15-30 min t rest before the saline infusion (20 ml/hr for 20 minutes) is started for the first cystometry period. Two hours after the first cystometry period, the rats are dosed with the vehicle or the test compound and one hour later a second cystometry is performed.
The following urodynamic variables are recorded:
Basal bladder pressure=the lowest bladder pressure during cystometry
Threshold pressure=bladder pressure immediately prior to micturition
Micturition volume=volume expelled
Micturition pressure=peak pressure during voiding
Spontaneous activity=mean amplitude of bladder pressure fluctuations during filling
Presentation of results: The mean value of each variable is calculated before and after compound administration. For each compound the changes in the variables measured are compared to the values obtained before treatment and expressed as percent inhibition. The data are also subjected to 2-way analysis of variance to determine significant (p<0.05) changes in the variable measured.
Criteria for Activity: The most characteristic finding in this rat model is spontaneous bladder contractions which develop during filling. The compounds which inhibit spontaneous contractions by at least 50% at 10 mg/kg p.o. or i.v. (arbitrary chosen dose) are considered active.

[3] = 0.5 h, isolated rat bladder strips, 15 mM additional KCl, 30 minute challenge, read-out: IC50 (50% inhibition of pre-drug contractile activity)

Row | IC50 [1, 3] | Compound | % Red (F): percent reduction in the total number of spontaneous contractions ([2]; 3 mg/kg p.o.) | other results
1 | 290 ± 20 nM | Cc1cc(Br)cc(C)c1CNc1c(NC(C)(C)C)c(=O)c1=O [Example 36, 3-(4-Bromo-2,6-dimethyl-benzylamino)-4-tert-butylamino-cyclobut-3-ene-1,2-dione] | -83 ± 9% | 
2 | 60 ± 14 nM | CCC(C)(C)Nc1c(NCc2ccc(C#N)cc2Cl)c(=O)c1=O [Example 76] | -57 ± 12% | IC50 ([1]; Rattus norvegicus, second lot (mp 215.5-216.0° C., softens 211.5° C.), n = 6, read-out: IC50 of a second lot): 130 ± 30 nM
3 | 1500 ± 300 nM | Cc1ccc(C)c(CNc2c(NC(C)(C)C)c(=O)c2=O)c1 [Example 95, 3-(t-Butylamino)-4-(2.5-dimethyl-benzylamino)-cyclobut-3-ene-1,2-dione] |  | 
4 | 2200 ± 950 nM | CCC(C)(C)Nc1c(N(Cc2ccc(C#N)cc2Cl)C(C)=O)c(=O)c1=O [Example 77, N-(2-Chloro-4-cyano-benzyl)-N-[2-(1,1-dimethyl-propylamino)-3,4-dioxo-cyclobut-1-enyl)-acetamide] |  | inhibition at 30 µM ([1]; Rattus norvegicus): 25%

The next lines start with the compound.

Row | Compound | IC50 [1, 3] | % Red (F): percent reduction in the total number of spontaneous contractions ([2]; 3 mg/kg p.o.) | other results
5 | CCc1cc(C#N)ccc1CNc1c(NC(C)(C)C)c(=O)c1=O [Example 27, 4-[(2-tert-Butylamino-3,4-dioxo-cyclobut-1-enylamino)-methyl]-3-ethyl-benzonitrile] | 240 ± 30 nM |  | % Red (F): percent reduction in the total number of spontaneous contractions ([2]; 10 mg/kg p.o.): -20 ± 22%
6 | CC(C)(C)Nc1c(NCc2ccc(C#N)cc2Cl)c(=O)c1=O [Example 2, 4-[(2-tert-Butylamino-3,4-dioxo-cyclobut-1-enylamino)-methyl]-3-chloro-benzonitrile] | 140 ± 20 nM |  | IC50 ([1]; Rattus norvegicus, prior lot (mp 234-236° C., softens 225° C.), n = 4, read-out: IC50 of a prior lot): 570 ± 340 nM; % Red (F): percent reduction in the total number of spontaneous contractions ([2]; 1 mg/kg p.o., prior lot of this compound (mp 234-236° C.)): -34 ± 11%; % Red (F): percent reduction in the total number of spontaneous contractions ([2]; 3 mg/kg p.o., prior lot of this compound (mp 234-236° C.)): -49 ± 8%; % Red (F): percent reduction in the total number of spontaneous contractions ([2]; 10 mg/kg p.o., prior lot of this compound (mp 234-236° C.)): -93 ± 3%
7 | Cc1ccc(CNc2c(NC(C)(C)C)c(=O)c2=O)c(C)c1 [Example 8, 3-tert-Butylamino-4-(2,4-dimethyl-benzylamino)-cyclobut-3-ene-1,2-dione] | 630 ± 150 nM | -38 ± 7% | 
8 | Cc1cccc(Cl)c1CNc1c(NC(C)(C)C)c(=O)c1=O [Example 31, 3-tert-Butylamino-4-(2-chloro-6-methyl-benzylamino)-cyclobut-3-ene-1,2-dion] | 1100 ± 300 nM |  | % Red (F): percent reduction in the total number of spontaneous contractions ([2]; 10 mg/kg p.o.): -38 ± 13%
9 | C[C@@H](Nc1c(NCc2ccc(C#N)cc2Cl)c(=O)c1=O)C(C)(C)C [Example 30, (R)-3-Chloro-4-{[3,4-dioxo-2-(1,2,2-trimethyl-propylamino)-cyclobut-1-enylamino]-methyl}-benzonitrile] | 180 ± 30 nM | -68 ± 10% | inhibition at 30 µM ([1]; Rattus norvegicus): 23%
10 | CC(Nc1c(NCc2ccc(C#N)cc2Cl)c(=O)c1=O)C(C)(C)C (stereo not drawn) [Example 6, 3-Chloro-4-{[3,4-dioxo-2-(1,2,2-trimethyl-propylamino)-cyclobut-1-enylamino]-methyl}-benzonitrile] | 660 ± 200 nM | -51 ± 6% | inhibition at 30 µM ([1]; Rattus norvegicus): 41.2%; % Red (F): percent reduction in the total number of spontaneous contractions ([2]; 10 mg/kg p.o.): -71 ± 3%
11 | CC(C)(C)Nc1c(NCc2cc(F)ccc2F)c(=O)c1=O [Example 21, 3-tert-Butylamino-4-(2,5-difluoro-benzylamino)-cyclobut-3-ene-1,2-dione] | 3900 ± 1100 nM |  | 
